Literature values, collected in EP4174079B1 (UNIWERSYTET JAGIELLONSKI, priority 2021, dated 2023).

Conditions: compared with cisplatin

Structure (SMILES): [Cl][Pt][Cl].c1cn[nH]c1.c1cn[nH]c1 [Cis-PtCl2(pzH)2]
- antitumour activity: significantly lower than cisplatin
